Test results published in patent publication US20260042762A1 (Kymera Therapeutics, Inc., priority 2018, published 2026).

Target: T1, MerTK (Homo sapiens, UniProt Q12866)
T1 construct: endogenous in cells; host or cells: Jurkat cells
T1 sequence (Q12866 21-999): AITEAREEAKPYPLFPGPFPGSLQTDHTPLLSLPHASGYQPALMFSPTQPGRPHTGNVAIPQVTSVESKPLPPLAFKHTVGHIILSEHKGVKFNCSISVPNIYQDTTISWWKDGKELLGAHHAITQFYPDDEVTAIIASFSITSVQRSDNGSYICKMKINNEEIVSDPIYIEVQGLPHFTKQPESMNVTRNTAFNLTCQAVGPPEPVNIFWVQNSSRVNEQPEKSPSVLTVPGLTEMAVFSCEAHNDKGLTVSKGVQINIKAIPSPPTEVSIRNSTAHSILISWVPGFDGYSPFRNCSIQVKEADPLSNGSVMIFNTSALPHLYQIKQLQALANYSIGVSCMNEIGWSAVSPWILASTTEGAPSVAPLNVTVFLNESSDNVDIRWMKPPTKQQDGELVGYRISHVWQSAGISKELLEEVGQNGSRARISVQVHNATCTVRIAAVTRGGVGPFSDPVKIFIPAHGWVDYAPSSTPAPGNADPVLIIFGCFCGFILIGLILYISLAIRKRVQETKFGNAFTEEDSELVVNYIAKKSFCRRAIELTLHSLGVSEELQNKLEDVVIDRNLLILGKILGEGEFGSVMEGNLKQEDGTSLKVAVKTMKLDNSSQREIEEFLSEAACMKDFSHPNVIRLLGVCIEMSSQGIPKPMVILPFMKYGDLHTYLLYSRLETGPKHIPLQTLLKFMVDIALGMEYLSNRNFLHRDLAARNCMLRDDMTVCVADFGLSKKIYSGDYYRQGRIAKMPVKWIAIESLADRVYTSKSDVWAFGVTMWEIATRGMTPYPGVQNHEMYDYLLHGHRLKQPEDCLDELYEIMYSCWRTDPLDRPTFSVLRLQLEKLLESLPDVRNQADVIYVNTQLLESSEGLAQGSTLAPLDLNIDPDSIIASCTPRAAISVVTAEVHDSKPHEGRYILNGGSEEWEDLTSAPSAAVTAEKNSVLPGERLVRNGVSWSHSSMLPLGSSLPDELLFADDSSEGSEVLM
Test: MerTk degradation in Jurkat cells (Western blot)
Format: cell-based
Conditions: 0.001-1 μM, 4 hour-incubation at 37° C.; for Dmax: Jurkat, 4 h, read-out: Jurkat Max % MerTK Degradation
Outline: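 MerTK degradation was read by near-infrared Western blot, normalized to actin, in BCA-quantified lysates of Jurkat cells exposed to 0.001-1 μM compound for 4 h at 37 °C.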

| SMILES | Dmax [%] | Jurkat Max % MerTK Degradation |
| --- | --- | --- |
| O=C(c1ccc(CNCc2ccc(-c3ccc4c(cnn4CC4CC4)c3)cc2)cc1)N1CC(C2CCN(Cc3ccc(-c4cn([C@H]5CC[C@H](O)CC5)c5nc(NCCC(F)(F)F)ncc45)cc3)CC2)C1 [I-181, trans-4-[5-[4-([4-[1-(4-[[([4-[1-(Cyclopropylmethyl)indazol-5-yl]phenyl]methyl)amino]methyl]benzoyl)azetidin-3-yl]piperidin-1-yl]methyl)phenyl]-2-[(3,3,3-trifluoropropyl)amino]pyrrolo[2,3-d]pyrimidin-7-yl]cyclohexan-1-ol] | < 20 | – |
| CN1CCN(Cc2ccc(-c3ccc(CO[C@H]4CCC[C@@H]4NC(=O)c4cc(-c5cnn(CCOCCOCCCc6ccc7c(c6)n(C)c(=O)n7C6CCC(=O)NC6=O)c5)cnc4N)cc3)cc2)CC1 (stereo partly drawn) [I-182, 2-Amino-5-(1-[2-(2-[3-[1-(2,6-dioxopiperidin-3-yl)-3-methyl-2-oxo-1,3-benzodiazol-5-yl]propoxy]ethoxy)ethyl]pyrazol-4-yl]-N-[(1S,2S)-2-([4-[(4-methylpiperazin-1-yl)methyl]-[1,1-biphenyl]-4-yl]methoxy)cyclopentyl]pyridine-3-carboxamide] | 20 to 50 | – |
| CN1CCN(Cc2ccc(-c3ccc(CO[C@H]4CCC[C@@H]4NC(=O)c4cc(-c5cnn(CCCc6cccc7c6n(C)c(=O)n7C6CCC(=O)NC6=O)c5)cnc4N)cc3)cc2)CC1 (stereo partly drawn) [I-183, 2-Amino-5-(1-[3-[1-(2,6-dioxopiperidin-3-yl)-3-methyl-2-oxo-1,3-benzodiazol-4-yl]propyl]pyrazol-4-yl)-N-[(1S,2S)-2-([4-[(4-methylpiperazin-1-yl)methyl]-[1,1-biphenyl]-4-yl]methoxy)cyclopentyl]pyridine-3-carboxamide] | < 20 | – |
| CN1CCN(Cc2ccc(-c3ccc(CO[C@H]4CCC[C@@H]4NC(=O)c4cc(-c5cnn(CCOCCOCCCc6cccc7c6n(C)c(=O)n7C6CCC(=O)NC6=O)c5)cnc4N)cc3)cc2)CC1 (stereo partly drawn) [I-184, 2-Amino-5-[1-[2-(2-[3-[1-(2,6-dioxopiperidin-3-yl)-3-methyl-2-oxo-1,3-benzodiazol-4-yl]propoxy]ethoxy)ethyl]pyrazol-4-yl]-N-[(1S,2S)-2-([4-[(4-methylpiperazin-1-yl)methyl]-[1,1-biphenyl]-4-yl]methoxy)cyclopentyl]pyridine-3-carboxamide] | 20 to 50 | – |
| C[C@H](Nc1ncc2c(-c3ccc(CN4CCN(CCCCOCCCc5ccc6c(c5)n(C)c(=O)n6C5CCC(=O)NC5=O)CC4)cc3)cn([C@H]3CC[C@H](O)CC3)c2n1)C(F)F (stereo partly shown) [I-185] | > 50 | – |
| CCC[C@H](C)Nc1ncc2c(-c3ccc(CN4CCN(C5CC(OCCc6ccc7c(c6)n(C)c(=O)n7C6CCC(=O)NC6=O)C5)CC4)cc3)cn([C@H]3CC[C@@](C)(O)CC3)c2n1 (stereo partly drawn) [I-187, 3-[3-methyl-2-oxo-5-[2-(3-[4-[(4-[2-[(2S)-pentan-2-ylamino]-7-[cis-4-hydroxy-4-methylcyclohexyl]pyrrolo[2,3-d]pyrimidin-5-yl]phenyl)methyl]piperazin-1-yl]cyclobutoxy)ethyl]-1,3-benzodiazol-1-yl]piperidine-2,6-dione; formic acid] | > 50 | – |
| CCC[C@H](C)Nc1ncc2c(-c3ccc(CN4CCN(C5CC(OCCc6ccc7c(c6)n(C)c(=O)n7C6CCC(=O)NC6=O)C5)CC4)cc3)cn([C@H]3CC[C@](C)(O)CC3)c2n1 (stereo partly drawn) [I-188, 3-[3-methyl-2-oxo-5-[2-(3-[4-[(4-[2-[(2S)-pentan-2-ylamino]-7-[trans-4-hydroxy-4-methylcyclohexyl]pyrrolo[2,3-d]pyrimidin-5-yl]phenyl)methyl]piperazin-1-yl]cyclobutoxy)ethyl]-1,3-benzodiazol-1-yl]piperidine-2,6-dione; formic acid] | > 50 | – |
| C[C@H](CC(F)(F)F)Nc1ncc2c(-c3ccc(CN4CCN(C5CC(OCCc6ccc7c(c6)n(C)c(=O)n7C6CCC(=O)NC6=O)C5)CC4)cc3)cn([C@H]3CC[C@H](O)CC3)c2n1 (stereo partly drawn) [I-194, 3-[3-methyl-2-oxo-5-[2-(3-[4-[(4-[7-[trans-4-hydroxycyclohexy1]-2-[[(2R)-4,4,4-trifluorobutan-2-yl]amino]pyrrolo[2,3-d]pyrimidin-5-yl]phenyl)methyl]piperazin-1-yl]cyclobutoxy)ethyl]-1,3-benzodiazol-1-yl]piperidine-2,6-dione] | > 50 | – |
| C[C@@H](CC(F)(F)F)Nc1ncc2c(-c3ccc(CN4CCN(C5CC(OCCc6ccc7c(c6)n(C)c(=O)n7C6CCC(=O)NC6=O)C5)CC4)cc3)cn([C@H]3CC[C@H](O)CC3)c2n1 (stereo partly drawn) [I-195, 3-[3-methyl-2-oxo-5-[2-(3-[4-[(4-[7-[trans-4-hydroxycyclohexy1]-2-[[(2S)-4,4,4-trifluorobutan-2-yl]amino]pyrrolo[2,3-d]pyrimidin-5-yl]phenyl)methyl]piperazin-1-yl]cyclobutoxy)ethyl]-1,3-benzodiazol-1-yl]piperidine-2,6-dione] | 20 to 50 | – |
| C[C@H](CC(F)(F)F)Nc1ncc2c(-c3ccc(CN4CCN(CCCO[C@H]5CCN(Cc6ccc7c(c6)n(C)c(=O)n7C6CCC(=O)NC6=O)C5)CC4)cc3)cn([C@H]3CC[C@H](O)CC3)c2n1 (stereo partly shown) [I-198] | – | A (maximum MerTK degradation greater than 50%) |

The next lines start with results.

| Dmax [%] | SMILES | Jurkat Max % MerTK Degradation |
| --- | --- | --- |
| > 50 | CCC[C@H](C)Nc1ncc2c(-c3ccc(CN4CCN(CCCOC5CCN(Cc6ccc7c(c6)n(C)c(=O)n7C6CCC(=O)NC6=O)CC5)CC4)cc3)cn([C@H]3CC[C@H](O)CC3)c2n1 (stereo partly drawn) [I-189, 3-(3-methyl-2-oxo-5-[[4-(3-[4-[(4-[2-[(2S)-pentan-2-ylamino]-7-[trans-4-hydroxycyclohexyl]pyrrolo[2,3-d]pyrimidin-5-yl]phenyl)methyl]piperazin-1-yl]propoxy)piperidin-1-y1]methyl]-1,3-benzodiazol-1-y1)piperidine-2,6-dione; formic acid] | – |
| > 50 | Cc1ncsc1-c1ccc(CNC(=O)[C@@H]2C[C@@H](O)CN2C(=O)[C@@H](NC(=O)C2(F)CC2)C(C)(C)C)c(OCCOCCOCCOCCN2CCN(Cc3ccc(-c4cn([C@H]5CC[C@H](O)CC5)c5nc(NCCC(F)(F)F)ncc45)cc3)CC2)c1 [I-190] | – |
| < 20 | Cc1cc(CNCc2ccc(C(=O)N3CC(C4CCN(Cc5ccc(-c6cn([C@H]7CC[C@H](O)CC7)c7nc(NCCC(F)(F)F)ncc67)cc5)CC4)C3)cc2)ccc1-c1ccc2nn(CC3CC3)cc2c1 [I-191, trans-4-[5-[4-([4-[1-(4-[[([4-[2-(cyclopropylmethyl)indazol-5-yl]-3-methylphenyl]methyl)amino]methyl]benzoyl)azetidin-3-yl]piperidin-1-yl]methyl)phenyl]-2-[(3,3,3-trifluoropropyl)amino]pyrrolo[2,3-d]pyrimidin-7-yl]cyclohexan-1-ol] | – |
| > 50 | C[C@H](CC(F)(F)F)Nc1ncc2c(-c3ccc(CN4CCN(CCCOC5CCN(Cc6ccc7c(c6)n(C)c(=O)n7C6CCC(=O)NC6=O)CC5)CC4)cc3)cn([C@H]3CC[C@H](O)CC3)c2n1 (stereo partly drawn) [I-196, 3-(3-methyl-2-oxo-5-[[4-(3-[4-[(4-[7-[trans-4-hydroxycyclohexyl]-2-[[(2R)-4,4,4-trifluorobutan-2-yl]amino]pyrrolo[2,3-d]pyrimidin-5-y1]phenyl)methyl]piperazin-1-yl]propoxy)piperidin-1-yl]methyl]-1,3-benzodiazol-1-yl)piperidine-2,6-dione] | – |
| > 50 | C[C@@H](CC(F)(F)F)Nc1ncc2c(-c3ccc(CN4CCN(CCCOC5CCN(Cc6ccc7c(c6)n(C)c(=O)n7C6CCC(=O)NC6=O)CC5)CC4)cc3)cn([C@H]3CC[C@H](O)CC3)c2n1 (stereo partly drawn) [I-197, 3-(3-methyl-2-oxo-5-[[4-(3-[4-[(4-[7-[trans-4-hydroxycyclohexyl]-2-[[(2S)-4,4,4-trifluorobutan-2-yl]amino]pyrrolo[2,3-d]pyrimidin-5-yl]phenyl)methyl]piperazin-1-yl]propoxy)piperidin-1-yl]methyl]-1,3-benzodiazol-1-y1)piperidine-2,6-dione] | – |
| 20 to 50 | C[C@@H](CC(F)(F)F)Nc1ncc2c(-c3ccc(CN4CCN(CCCO[C@H]5CCN(Cc6ccc7c(c6)n(C)c(=O)n7C6CCC(=O)NC6=O)C5)CC4)cc3)cn([C@H]3CC[C@H](O)CC3)c2n1 (stereo partly drawn) [I-199, 3-(3-methyl-2-oxo-5-[[(3S)-3-(3-[4-[(4-[7-[trans-4-hydroxycyclohexy1]-2-[[(2S)-4,4,4-trifluorobutan-2-yl]amino]pyrrolo[2,3-d]pyrimidin-5-yl]phenyl)methyl]piperazin-1-yl]propoxy)pyrrolidin-1-yl]methyl]-1,3-benzodiazol-1-yl)piperidine-2,6-dione] | – |
